Paper PMC10605847 (Cancers, 2023)

How the values were obtained:
HDAC1 = molecular target: T1, HDAC1 (Homo sapiens, UniProt Q13547); test: HDAC1 fluorimetric inhibitory activity assay (Fluor de Lys kit); type: biochemical; conditions: read-out: HDAC1-Inhibitory Ability (IC50)
T1 construct: purchased Enzo Life Sciences International, Inc
Method: HDAC1-inhibitory activity was determined using the HDAC activity analysis kit by fluorescence measurement (HDAC1 Fluorimetric Drug Discovery Assay Kit A Fluoro de Lys Fluorescent Assay System, Enzo Life Sciences International, Inc., Farmingdale, New York, USA) in accordance with the manufacturer’s instructions. Fluorescence was measured at an excitation wavelength of 360 nm and emission of 460 nm. […] All experiments were carried out in three repetitions.

HeLa cells = test: MTT cell viability, HeLa; conditions: Homo sapiens, 24 h, read-out: IC50 cytotoxic effect, HeLa
Method: (§1) For all experiments using cell lines, cells were cultured in a DMEM culture medium with the addition of 10% fetal bovine serum, 2 mM glutamine and 1% penicillin-streptomycin as antibiotics under standard conditions at 37 °C with 5% CO2.
(§2) Cell viability was measured using MTT analysis, as described earlier [48]. In short, 10,000 HeLa and Hek-293 cells per well were placed in sterile 96-well culture plates and cultured under the standard conditions described above for 24 h to adhere. After the time elapsed, the cells were treated with the studied compounds in a concentration range from 0.1 to 100 µM (0.1–1–3–10–30–100) and incubated for 24 h. The control samples contained an equivalent volume of solvent (DMSO < 1%). At the end of incubation, cell viability was measured by adding an MTT solution (the final concentration was 5 mg/mL, DiaM, Moscow, Russia). After 2 h of incubation at 37 °C, the nutrient medium was carefully aspirated and replaced with 200 µL of dimethyl sulfoxide to dissolve the formazane granules. The optical density of the formazane solution was determined using a multifunctional analyzer Cytation™3 (BioTek Instruments, Inc., Winooski, VT, USA) at λ = 530 nm. All experiments were carried out in three repetitions.

[1] = MTT cell viability, Hek-293; conditions: human, Hek-293 cells
Method: as §1, §2

PA-1 cells = test: Glycolysis stress test (Seahorse XFe96, ECAR); type: cell-based, human; conditions: PA-1, 100 µM
Method: In order to achieve a 90–95% monolayer, approximately 40,000 PA-1 cells per well were placed in XF96 cell-culture plates and a glycolysis stress test was performed 24 h later using an XFe96 extracellular flow analyzer (Seahorse Bioscience, North Billerica, MA, USA) by measuring the rate of extracellular medium acidification (ECAR).
Briefly, after the cells were seeded, the plate was placed in an incubator and cultured for 24 h under the standard conditions described above.
After placing the tablet in the analyzer, a step-by-step measurement of the extracellular acidification rate of the medium was performed in response to the sequential addition of modulators: port A—the studied compounds at a concentration of 100 µM, port B—10 mM of glucose (Seahorse Bioscience, North Billerica, MA, USA), port C—1 µM of oligomycin (Sigma Aldrich, St. Louis, MI, USA) and port D—25 mM 2-deoxy-D-glucose (Sigma Aldrich, St. Louis, MI, USA). To ensure the stability of each measurement, three separate readings were taken.
Glycolysis was measured by estimating the difference between the maximum ECAR after glucose injection and the last measurement before glucose addition. Such a parameter of glycolytic function as glycolytic capacity was determined by analyzing the difference between the maximum ECAR after oligomycin injection and the last measurement before glucose addition. Glycolytic reserve was defined as the difference between glycolytic capacity and glycolysis.

HeLa/CDDP cells = test: Cisplatin cytotoxicity alone and combined with hydroxamic acids, cisplatin-resistant HeLa/CDDP (MTT); type: cell-based, human; conditions: 5 µM hydroxamic acid
Method: Cell viability was measured using MTT analysis, as described earlier [48]. In short, 10,000 HeLa and Hek-293 cells per well were placed in sterile 96-well culture plates and cultured under the standard conditions described above for 24 h to adhere. After the time elapsed, the cells were treated with the studied compounds in a concentration range from 0.1 to 100 µM (0.1–1–3–10–30–100) and incubated for 24 h. The control samples contained an equivalent volume of solvent (DMSO < 1%). At the end of incubation, cell viability was measured by adding an MTT solution (the final concentration was 5 mg/mL, DiaM, Moscow, Russia). […] The optical density of the formazane solution was determined using a multifunctional analyzer Cytation™3 (BioTek Instruments, Inc., Winooski, VT, USA) at λ = 530 nm. All experiments were carried out in three repetitions.

HeLa cell line = test: Cisplatin cytotoxicity alone and combined with hydroxamic acids, HeLa (MTT); type: cell-based, human; conditions: 5 µM of compound with cisplatin
Method: Cell viability was measured using MTT analysis, as described earlier [48]. In short, 10,000 HeLa and Hek-293 cells per well were placed in sterile 96-well culture plates and cultured under the standard conditions described above for 24 h to adhere. After the time elapsed, the cells were treated with the studied compounds in a concentration range from 0.1 to 100 µM (0.1–1–3–10–30–100) and incubated for 24 h. The control samples contained an equivalent volume of solvent (DMSO < 1%). At the end of incubation, cell viability was measured by adding an MTT solution (the final concentration was 5 mg/mL, DiaM, Moscow, Russia). After 2 h of incubation at 37 °C, the nutrient medium was carefully aspirated and replaced with 200 µL of dimethyl sulfoxide to dissolve the formazane granules. The optical density of the formazane solution was determined using a multifunctional analyzer Cytation™3 (BioTek Instruments, Inc., Winooski, VT, USA) at λ = 530 nm. […]
Then, the cells were treated with a combination of increasing doses of cytostatic agents and the test compound with a constant ratio of 1:4, and subsequently, a cell death analysis was performed. The CI values were calculated and plotted using CompuSyn.exe (Biosoft, Ferguson, MO, USA) based on the concentration and effect of each agent and their combinations according to instructions of the software. […]

in vitro = conditions: human
Method: as §1, §2

T1 sequence (Q13547 whole entry): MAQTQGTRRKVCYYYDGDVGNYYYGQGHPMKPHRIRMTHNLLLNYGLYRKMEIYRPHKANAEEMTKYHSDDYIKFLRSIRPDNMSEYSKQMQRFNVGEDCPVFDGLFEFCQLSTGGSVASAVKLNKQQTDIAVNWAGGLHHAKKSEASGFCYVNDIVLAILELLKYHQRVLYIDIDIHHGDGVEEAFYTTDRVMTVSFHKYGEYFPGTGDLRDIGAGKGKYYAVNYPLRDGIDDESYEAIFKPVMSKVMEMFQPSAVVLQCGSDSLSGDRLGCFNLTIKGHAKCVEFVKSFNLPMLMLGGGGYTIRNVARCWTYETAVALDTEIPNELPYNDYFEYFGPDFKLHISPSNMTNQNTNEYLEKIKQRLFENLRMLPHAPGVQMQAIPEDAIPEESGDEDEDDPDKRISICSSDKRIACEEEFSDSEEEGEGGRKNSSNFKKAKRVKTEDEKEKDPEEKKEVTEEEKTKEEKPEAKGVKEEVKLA

SMILES	IC50 (HDAC1)	melting point	IC50 (HeLa cells)	IC50 at 24 h [1]	inhibition at 100 µM (PA-1 cells; Homo sapiens, vs. control, read-out: inhibition of glycolytic reserve (ECAR))	glycolytic capacity (maximum ECAR after oligomycin injection) (PA-1 cells; p < 0.0001 vs. control)	reduction of glycolysis (ECAR) (PA-1 cells; vs. control)	fold decrease in the IC50 of cisplatin (HeLa/CDDP cells)	decrease in the value of cisplatin IC50 (HeLa cell line)	IC50 at 24 h (in vitro)
CC1(C)C2CC=C(CNC(=O)/C=C/c3ccc(C(=O)NO)cc3)[C@@H]1C2 [18a, 4-((E)-3-((((1R)-6,6-Dimethylbicyclo[3.1.1]hept-2-en-2-yl)methyl)amino)-3-oxoprop-1-en-1-yl)-N-hydroxybenzamide]	6.9 ± 0.03 µM	96.5 °C	29.2 ± 1.06 µM	46.7 ± 2.93 µM	–	–	–	–	–	–
CC1(C)C2CC=C(CNC(=O)/C=C/c3ccc(C(=O)NO)cc3)[C@H]1C2 [18b, 4-((E)-3-((((1S)-6,6-Dimethylbicyclo[3.1.1]hept-2-en-2-yl)methyl)amino)-3-oxoprop-1-en-1-yl)-N-hydroxybenzamide]	7.96 ± 0.28 µM	–	43.6 ± 1.02 µM	38.9 ± 1.24 µM	–	–	–	–	–	–
CC1(C)C2CC=C(CCNC(=O)/C=C/c3ccc(C(=O)NO)cc3)[C@@H]1C2 [18c, 4-((E)-3-((2-((1R)-6,6-Dimethylbicyclo[3.1.1]hept-2-en-2-yl)ethyl)amino)-3-oxoprop-1-en-1-yl)-N-hydroxybenzamide]	4.45 ± 0.3 µM	–	33.8 ± 1.19 µM	34 ± 3.04 µM	86%	significantly lower	26.6%	approximately 2.02 fold	34.50%	–
CC1(C)C2CC=C(CNC(=O)c3ccc(/C=C/C(=O)NO)cc3)[C@@H]1C2 [21a, N-(((1R)-6,6-Dimethylbicyclo[3.1.1]hept-2-en-2-yl)methyl)-4-((E)-3-(hydroxyamino)-3-oxoprop-1-en-1-yl)benzamide]	7.23 ± 0.46 µM	74.6 °C	18 ± 0.47 µM	–	–	–	–	–	–	21.2 ± 1.66 µM
CC1(C)C2CC=C(CNC(=O)c3ccc(/C=C/C(=O)NO)cc3)[C@H]1C2 [21b, N-(((1S)-6,6-Dimethylbicyclo[3.1.1]hept-2-en-2-yl)methyl)-4-((E)-3-(hydroxyamino)-3-oxoprop-1-en-1-yl)benzamide]	8.2 ± 0.49 µM	–	42.8 ± 1.28 µM	–	–	–	–	–	–	37.2 ± 1.89 µM
CC1(C)C2CC=C(CCNC(=O)c3ccc(/C=C/C(=O)NO)cc3)[C@@H]1C2 [21c, N-(2-((1R)-6,6-Dimethylbicyclo [3.1.1]hept-2-en-2-yl)ethyl)-4-((E)-3-(hydroxyamino)-3-oxoprop-1-en-1-yl)benzamide]	5 ± 0.12 µM	132.5 to 132.6 °C	19.1 ± 0.96 µM	33.9 ± 2.59 µM	–	–	–	–	–	–
CC(/C=C/C(=O)NO)=C\[C@@H](C)C(=O)c1ccc(N(C)C)cc1 [Trichostatin A, reference compound]	–	–	0.38 ± 0.02 µM	0.22 ± 0.01 µM	–	–	–	–	–	–
